Experiments:
As1 = assay: Immunohistochemistry staining of distal colon sections for As1; assay type: in vivo, mouse; details: after colitis induction, vs control mice with colitis, FIG. 3E, 4A
Method: Four micrometer paraffin embedded tissue sections were deparaffinized and rehydrated. Endogenous peroxidase was blocked with three percent H2O2 in methanol. Sections undergoing for ALS staining were incubated in cold acetone at −20° C. for 7 minutes. For F4/80 and MAC-2 staining, the present inventors performed antigen retrieval in Tris-EDTA pH 9 and 10 mM citric acid pH 6, for 10 minutes, respectively, using a low boiling program in the microwave to break protein cross-links and unmask antigens. After pre-incubation with 20% normal horse serum and 0.2% Triton X-100 for 1 hour at RT (root temperature), sections were incubated with the primary antibodies as follow; ASL (1:100, Abcam, ab97370, CA, USA); F4/80 (1:50, Serotec, Kidllington, UK); Mac-2 (1:400, Cedarlane, N.C., USA). For fluorescent double-staining of ASL and CD11c the mouse anti ASL (1:50 Santa Cruz Biotechnology, Inc. sc-166787, TX, USA) and rabbit anti CD11c (1:50, ab52632) were used. All antibodies were diluted in PBS containing 2% normal horse serum and 0.2% Triton. Sections were incubated overnight at RT followed by 48 hours at 4° C. Sections were washed three times in PBS and incubated with secondary biotinylated IgG at RT (room temperature) for 1.5 hour, washed three times in PBS and incubated with avidin-biotin Complex (Elite-ABC kit, Vector Lab, CA, USA) at RT for additional 90 minutes followed by DAB (Sigma) reaction. For the fluorescent staining the CY2 conjugated anti mouse and CY3 conjugated streptavidin (1:100 and 1:200 respectively, Jackson ImmunoResearch, West Grove, Pa.) were used.

Ass1 = assay: Immunohistochemistry staining of distal colon sections for Ass1; assay type: in vivo, mouse; details: after colitis induction, fisetin treatment, FIG. 4A
[1] = system: lipopolysaccharide (LPS)-stimulated mouse primary peritoneal macrophages; details: in vitro; cited from earlier work
C57BL/6J.OlaaHsd mice = assay: DSS-induced colitis, treatment with arginine, citrulline, NaNO2, fisetin or citrulline plus fisetin; assay type: in vivo, mouse; details: day 12; fisetin, citrulline or both vs DMSO control; FIG. 4C

SMILES: O=c1c(O)c(-c2ccc(O)c(O)c2)oc2cc(O)ccc12 [fisetin, 3,7, 3′, 4′-tetrahydroxyflavone]
- As1 expression in distal colon sections (intestine, enterocytes) (As1): up regulation
- As1 expression in distal colon sections (intestine, enterocytes) (As1; listed as fesitin): upregulated
- Ass1 expression in distal colon sections (enterocytes) (Ass1): up regulation
- Ass1 expression in distal colon sections (enterocytes) (Ass1; listed as fesitin): upregulated
- pro-inflammatory cytokine [1]: significantly reduces pro-inflammatory cytokine
- endoscopic colitis score (C57BL/6J.OlaaHsd mice): significant improvement
